Test results taken from patent US10538571B2, “Compositions and methods for neurological diseases” (Coda Biotherapeutics, Inc., priority 2017, dated 2020).

Legend:
[1] = molecular target: T1, engineered chimeric LGIC receptor SEQ ID NO:33 (α7-nAChR ligand binding domain with GlyRα1 Cys-loop, GlyRα1 ion pore domain) (Homo sapiens, UniProt P36544, F159M/H163T/I152M/R155K/V154L/W156N/Y151P); assay: Two electrode voltage clamp currents in Xenopus oocytes expressing the receptor; assay type: cell-based; details: Xenopus oocytes; FIG. 5
T1 construct: expressed in transfected cells; host or cells: Xenopus oocytes (cDNA injection)
Experimental: (§1) For Xenopus oocyte studies, injections of cDNAs encoding for ion channels at a final concentration of 0.04 μg/μL were performed using a proprietary automated injection device and receptor expression examined at least two days later. Oocytes were poked with two electrodes and their membrane potential maintained at −80 mV throughout the experiment. All recordings were performed at 18° C. and cells were superfused with OR2 medium containing in mM: NaCl 82.5, KCl 2.5, HEPES 5, CaCl2.2H2O 1.8, MgCl2.6H2O 1, pH 7.4. Recordings progressed if oocytes had sufficiently low holding current, in which case they were then subjected to ligand or test compound application (5-10 s wash intervals), with 100 s of wash in between doses. Currents evoked by acetylcholine or other agonists were recorded using an automated process equipped with standard two electrode voltage clamp configuration (TEVC). Data were captured and analyzed using HiQScreen proprietary data acquisition and analysis software running under Matlab (Mathworks Inc.). Acetylcholine was prepared as a concentrated stock solution (10-1 M) in water and then diluted in the recording medium to obtain the desired test concentration. Nicotine was diluted in water as stock solution (10-1 M), kept frozen and diluted immediately prior to the experiment at the desired concentration. Compounds were prepared as stock solution (10-1M) in OR2 and then diluted in the recording medium to obtain the desired test concentration. Stock solution for Compound-1 was made in OR2 at pH 5 adjusted with HCl. To assess that dilution at the final concentration of this stock solution introduced no significant changes, the pH of the final solution was confirmed using a colorimetric assay (Galietta L. J. V., et al. 2001. FEBS Letters 499: 220-224. Kruger W., et al. (2005). Neuroscience Letters 380: 340-345.)
(§2) To better understand the impact of the heterologous domains that had been inserted into the channels, the ligand-dependent response profiles of wild type α7-nAChR and various engineered chimeric LGIC receptors to acetylcholine as well as to non-native ligands TC-6987, AZD-0328, and Facinicline/RG3487 were assessed. Receptors were transiently expressed in […] cells and currents were measured on an automated patch clamp system (Fluxion Biosciences) following 1 second addition of drug. Inclusion of a GlyRα1 Cys-loop sequence in the extracellular domain increased the potency of all small molecules on the engineered receptor (leftward shift in EC50) (e.g. SEQ ID NO:35, FIG. 4C vs SEQ ID NO:16, FIG. 4B). […] Inclusion of both the Cys-loop and β1-β2 loop sequences of GlyRα1 in the extracellular domain reduced the sensitivity by about 1 log from that observed with the full Cys-loop sequence alone, but further increased conductance approximately 2-fold and slowed the rate of deactivation of the channel (SEQ ID NO:41, FIG. 4E vs. SEQ ID NO:33, FIG. 4D).

[2] = molecular target: T2, engineered chimeric LGIC receptor SEQ ID NO:41 (as SEQ ID NO:33, further comprising the β1-β2 loop domain from GlyRα1) (Homo sapiens, UniProt P36544, F159M/H163T/I152M/K68T/N69T/Q70M/R155K/V154L/W156N/Y151P); assay: as above; assay type: cell-based; details: FIG. 5
T2 construct: expressed in transfected cells; host or cells: Xenopus oocytes (cDNA injection)
Experimental: as §1, §2

[3] = tested on: spared nerve injury (SNI) model; assay: Spared nerve injury (SNI) model of neuropathic pain, mechanical withdrawal threshold (von Frey, up-down method) after AAV.hSYN-α7-nAChR/GlyRα1 injection; assay type: in vivo, rat; details: for reversal of mechanical hypersensitivity: single IP injection
Excerpt: Eight expression cassettes are constructed using standard molecular biology techniques. All contain a human synapsin-1 (hSYN) promoter linked to engineered chimeric receptors comprising a ligand binding domain of α7-nAChR and a Cys-loop domain and ion pore domain of GlyRα1. Their design is as follows:
These cassettes are subcloned into AAV bacmids, purified, transfected into Sf9 insect cells to produce recombinant bacuvlovirus, and then amplified. Sf9 cells are double infected using the amplified recombinant baculovirus containing the hSYN-α7-nAChR/GlyRα1 cassettes and another recombinant baculovirus containing the Rep and AAV6(Y705+731F+T492V) Cap genes to produce recombinant AAV vectors. The viral vectors are purified, viral titer determined using qPCR, and SDS-PAGE used to verify the purity of AAV vectors.
To produce mechanical hypersensitivity in a model that mimics a neuropathic pain condition, the spared nerve injury (SNI) model (a validated model of mechanical allodynia) is used (Shields et al., 2003, The Journal of Pain, 4, 465-470). This model is produced by the sectioning of the common peroneal and the sural nerves and isolating the tibial branch. Mechanical withdrawal threshold is assessed by placing rats on an elevated wire-mesh grid and stimulating the plantar surface of the hind paw with von Frey filaments.
A dorsal hemilaminectomy is made at the level of the lumbar enlargement to expose two segments (about 1.5-2 mm) of lumbar spinal cord, after which the dura mater is incised and reflected. The viral solution is loaded into a glass micropipette (prefilled with mineral oil). The micropipette is connected to a manual micro-injector mounted on a stereotactic apparatus. The viral solution is targeted to the dorsal horn (left side). Along the rostro-caudal axis within the exposed region, 6 injections of 240 nl each are performed, in an equidistant linear fashion. After each injection, 1 min of resting time is observed and then the muscle layer is sutured, the skin closed with staples, and the animals were allowed to recover with heated-pad before they were returned to their home cages. Animals are perfused for histological analysis after the last behavior test.
The injection is performed with a borosilicate glass capillary (0.78/1 mm internal/external diameters) pulled to a fine point, attached by polyethylene tubing (0.4/0.8 mm internal/external diameters) to a syringe mounted in a microinjection pump. The needle is mounted on an extended arm of a stereotaxic frame swung to the outside (used to hold and manipulate the needle only). Tubing, syringe, and needle are all filled with water. One microliter air is taken up into the needle followed by 3 μL of the viral vector solution. The needle is loaded separately with this volume for each injection. Animals are anesthetized prior to surgery. Following an incision along the dorsal midline, the L4 and L5 DRG are exposed by removal of the lateral processes of the vertebrae. The epineurium lying over the DRG is opened, and the glass needle inserted into the ganglion, to a depth of 400 μm from the surface of the exposed ganglion. After a 3-minute delay to allow sealing of the tissue around the glass capillary tip, 1.1 μL virus solution was injected at a rate of 0.2 μL/minute. After a further delay of 2 minutes, the needle is removed. The L4 ganglion is injected first followed by the L5 ganglion. The muscles overlying the spinal cord are loosely sutured together with a 5-0 suture and the wound closed. Animals are allowed to recover at 37° C. and received postoperative analgesia.
Rats are first anesthetized and then placed vertically with their head fixed in a stereotaxic frame. An incision is made in the base of the neck to expose the groove in the nuchal crest. An incision is made (1-2 mm) in the cisternal membrane to a depth such that cerebrospinal fluid leaks out. […]

T1 sequence (P36544 with tags, fused parts or gaps Y151P/I152M/V154L/R155K/W156N/F159M/H163T): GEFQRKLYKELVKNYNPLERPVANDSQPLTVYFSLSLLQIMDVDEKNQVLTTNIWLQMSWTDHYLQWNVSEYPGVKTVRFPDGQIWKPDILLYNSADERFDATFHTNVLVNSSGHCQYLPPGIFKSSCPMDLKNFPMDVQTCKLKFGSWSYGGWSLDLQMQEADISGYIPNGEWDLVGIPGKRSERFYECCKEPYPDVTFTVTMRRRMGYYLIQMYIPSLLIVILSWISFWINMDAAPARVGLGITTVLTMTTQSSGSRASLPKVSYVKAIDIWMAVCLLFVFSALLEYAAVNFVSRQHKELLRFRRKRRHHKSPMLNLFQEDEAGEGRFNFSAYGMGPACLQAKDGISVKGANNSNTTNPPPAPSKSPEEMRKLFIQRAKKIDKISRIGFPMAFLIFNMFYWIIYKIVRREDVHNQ
T2 sequence (P36544 with tags, fused parts or gaps K68T/N69T/Q70M/Y151P/I152M/V154L/R155K/W156N/F159M/H163T): as the sequence (P36544 with tags, fused parts or gaps Y151P/I152M/V154L/R155K/W156N/F159M/H163T) above, with K46T, N47T, Q48M counted along it

SMILES: c1cnc2c(c1)C[C@@]1(CN3CCC1CC3)O2 [AZD-0328]
- fold more sensitive than wild type α7-nAChR [1]: approximately 3 fold
- sensitivity of SEQ ID NO:41 to ligand compared with wild type α7-nAChR [2]: comparably sensitive
- duration of the reversal of mechanical hypersensitivity ([3]; after single IP injection): at least 2 days
- effect on mechanical threshold in the absence of vector ([3]; contralateral side): no measurable effect
- mechanical thresholds after second IP injection ([3]; injected again on the third day, followed for 48 hours): recovery to non-injury baseline thresholds
- reversal of mechanical hypersensitivity ([3]; high dose of ligand, all rats (Chimera 1-8)): complete reversal
- reversal of mechanical hypersensitivity ([3]; low dose, rats receiving Chimera 1, 2, 4, 5, 6 and 8): complete reversal
- reversal of mechanical hypersensitivity ([3]; low dose, rats receiving Chimera 3 and 7): partial reversal
